Measurements published in patent publication US20260337153A1, “IONIZABLE AMINE LIPIDS” (Intellia Therapeutics, Inc., priority 2023, published 2026).
Values joined by “and” are separate entries in the source; they are usually repeats but may differ in a detail not shown here. Identical values can stand only once. Like-named read-outs stand apart in the source and are kept apart here.

Assays:
Assay type in all cases: physicochemical
[1] = pKa of unformulated amine lipid by TNS fluorescence
Summary of the method: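 Unformulated amine lipid was diluted from ethanol stock to approx. 100 μM in 0.1 M sodium phosphate buffers spanning pH 4.5–9.0 with TNS. Fluorescence read at ex 321/em 448 nm; normalized data fitted sigmoidally to give pKa.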

[2] = LNP average particle size and polydispersity by dynamic light scattering; settings: sgRNA:mRNA 1:2; for Number mean (average particle size) / PDI (polydispersity index) / Z-avg (average particle size): LNP with 50% ionizable lipid, 3% C13 Ether (LNP #1, Compound 53: 3% PEG2K-DMG instead)
Summary of the method: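 Z-average (intensity-based) and number-mean diameters plus PDI measured by DLS on LNP samples diluted in PBS. LNPs carried sgRNA and Cas9 mRNA at 1:2 w/w, with lipids at 50% ionizable lipid, 38% cholesterol, 9% DSPC and 3% PEG lipid (PEG2K-DMG, C13 Ether or C14 Ether).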

[3] = LNP encapsulation efficiency of RNA (Ribogreen fluorescence assay); settings: sgRNA:mRNA 1:2
Summary of the method: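 RiboGreen fluorescence (ex 488/em 525 nm) measured total RNA in 1×TE with 0.2% Triton X-100 and free RNA in 1×TE alone, against standard curves of the starting RNA; encapsulation = (total − free)/total. Total RNA alternatively quantified after Triton disruption by RP-IP HPLC, UV 260 nm.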

[4] = Table 3, Experiments 1-13, LNP 50% ionizable lipid, 38% cholesterol, 9% DSPC, 3% PEG2K-DMG
[5] = LNP with 50% ionizable lipid, 38% cholesterol, 9% DSPC, 3% C13 Ether (LNP #1, Compound 53: 3% PEG2K-DMG instead)
[6] = sodium phosphate buffer, additional ionizable lipids (53-61), unformulated amine lipid, TNS, read-out: Lipid pKa

SMILES | Number mean (average particle size) ([2]; 38% cholesterol, 9% DSPC) | PDI (polydispersity index) ([2]; 38% cholesterol, 9% DSPC) | Z-avg (average particle size) ([2]; 38% cholesterol, 9% DSPC) | Number mean [2, 4] | PDI [2, 4] | Z-avg [2, 4] | % E (encapsulation efficiency) [3, 5] | % E (encapsulation efficiency) [3, 4] | pKa [1, 6] | pKa ([1]; read-out: pKa) | other results
CCCCCCCCC(CCCCCCCC)OC(=O)CCCCCCC(=O)OCC(COC(=O)CCCCCCC(=O)OC(CCCCCCCC)CCCCCCCC)COC(=O)NCCN(CC)CC [Compound 52, O′1,O1-(2-((((2-(diethylamino)ethyl)carbamoyl)oxy)methyl)propane-1,3-diyl) 8,8′-di(heptadecan-9-yl) di(octanedioate)] | 74 nm | 0.02 | 88 nm | 79 nm | 0.03 | 87 nm | 97% | 97% | – | – | pKa ([1]; sodium phosphate buffer, Table 2, unformulated amine lipid, TNS, read-out: Lipid pKa): 6.47; Number mean ([2]; Table 7, LNP with 3% C13 Ether): 79 nm; PDI ([2]; Table 7, LNP with 3% C13 Ether): 0.01; Z-avg ([2]; Table 7, LNP with 3% C13 Ether): 85 nm; % E (encapsulation efficiency) ([3]; Table 7, LNP with 3% C13 Ether): 97%
CCCCC/C=C\C/C=C\CCCCCCCC(=O)OCC(COC(=O)CCC(OCCCCCCCC)OCCCCCCCC)COC(=O)OCCCN(CC)CC (centres unmarked) [Compound 53] | 71 nm | 0.04 | 87 nm | – | – | 94 nm and 89 nm and 96 nm and 92 nm and 90 nm and 91 nm and 95 nm | 98% | 98% and 99% and 94% and 97% | 6.2 | – | Number mean ([2]; Table 5, PEG lipid C13 Ether): 80 nm; PDI ([2]; Table 5, PEG lipid C13 Ether): 0.02; Z-avg ([2]; Table 5, PEG lipid C13 Ether): 87 nm; Number mean ([2]; Table 5, PEG lipid C14 Ether): 90 nm; PDI ([2]; Table 5, PEG lipid C14 Ether): 0.01; Z-avg ([2]; Table 5, PEG lipid C14 Ether): 96 nm; Number mean ([2]; Table 5, PEG lipid PEG2K-DMG): 82 nm; PDI ([2]; Table 5, PEG lipid PEG2K-DMG): 0.01; Z-avg ([2]; Table 5, PEG lipid PEG2K-DMG): 87 nm; % E (encapsulation efficiency) ([3]; Table 5, PEG lipid C13 Ether): 97%; % E (encapsulation efficiency) ([3]; Table 5, PEG lipid C14 Ether): 99%; % E (encapsulation efficiency) ([3]; Table 5, PEG lipid PEG2K-DMG): 97%
CCCCC/C=C\C/C=C\CCCCCCCC(=O)OCC(COC(=O)CCC(OCCCCCCCC)OCCCCCCCC)COC(=O)NCCN(CC)CC (centres unmarked) [Compound 54] | – | – | – | 80 nm | 0.003 | 98 nm | – | 88% | 6.5 | – | –
CCCCCCCCCOC(=O)CCCCCCCN(CCO)CCCCCCCC(=O)OC(CCCCCCCC)CCCCCCCC [Compound 55] | – | – | – | 65 nm | 0.05 | 77 nm | – | 84% | 6.6 | – | –
CCCCC/C=C\C/C=C\CCCCCCCC(=O)OCC(COC(=O)CCCC(=O)OC(CCCCCCCC)CCCCCCCC)COC(=O)OCCCN(CC)CC (centres unmarked) [Compound 56] | – | – | – | 74 nm and 80 nm | 0.04 and 0.03 | 90 nm and 86 nm | – | 95% and 97% | 6.1 | – | –
CCCCC/C=C\C/C=C\CCCCCCCC(=O)OCC(COC(=O)CCCCCC(=O)OC(CCCCCCCC)CCCCCCCC)COC(=O)OCCCN(CC)CC (centres unmarked) [Compound 57] | – | – | – | 75 nm and 80 nm | – | 91 nm and 88 nm | – | 96% | 6.1 | – | –
CCCCC/C=C\C/C=C\CCCCCCCC(=O)OCC(COC(=O)CCCC(=O)OC(CCCCCCCC)CCCCCCCC)COC(=O)NCCN(CC)CC (centres unmarked) [Compound 58] | – | – | – | 69 nm and 84 nm and 77 nm | – | 91 nm and 92 nm and 94 nm | – | 87% and 90% | 6.8 | – | –
CCCCC/C=C\C/C=C\CCCCCCCC(=O)OCC(COC(=O)CCCCCC(=O)OC(CCCCCCCC)CCCCCCCC)COC(=O)NCCN(CC)CC (centres unmarked) [Compound 59] | – | – | – | 83 nm and 78 nm | 0.01 and 0.02 | 100 nm and 95 nm | – | 83% and 82% | 6.8 | – | –
CCCCCCCCC(CCCCCCCC)OC(=O)CCCCCCC(=O)OCC(COC(=O)CCCCCCC(=O)OC(CCCCCCCC)CCCCCCCC)COC(=O)OCCCN(CC)CC [Compound 60] | – | – | – | 78 nm | 0.02 | 87 nm | – | 97% | 6.1 | – | Number mean ([2]; Table 5, PEG lipid C13 Ether): 80 nm; PDI ([2]; Table 5, PEG lipid C13 Ether): 0.03; Z-avg ([2]; Table 5, PEG lipid C13 Ether): 87 nm; Number mean ([2]; Table 5, PEG lipid C14 Ether): 83 nm; PDI ([2]; Table 5, PEG lipid C14 Ether): 0.03; Z-avg ([2]; Table 5, PEG lipid C14 Ether): 95 nm; Number mean ([2]; Table 5, PEG lipid PEG2K-DMG): 77 nm; PDI ([2]; Table 5, PEG lipid PEG2K-DMG): 0.03; Z-avg ([2]; Table 5, PEG lipid PEG2K-DMG): 89 nm; % E (encapsulation efficiency) ([3]; Table 5, PEG lipid C13 Ether): 95%; % E (encapsulation efficiency) ([3]; Table 5, PEG lipid C14 Ether): 96%; % E (encapsulation efficiency) ([3]; Table 5, PEG lipid PEG2K-DMG): 96%

The next lines start with results.

Number mean (average particle size) ([2]; 38% cholesterol, 9% DSPC) | PDI (polydispersity index) ([2]; 38% cholesterol, 9% DSPC) | Z-avg (average particle size) ([2]; 38% cholesterol, 9% DSPC) | Number mean [2, 4] | PDI [2, 4] | Z-avg [2, 4] | % E (encapsulation efficiency) [3, 5] | % E (encapsulation efficiency) [3, 4] | pKa [1, 6] | pKa ([1]; read-out: pKa) | SMILES | other results
– | – | – | 39 nm | 0.16 | 74 nm | – | 100% | 7.4 | – | CCCCCCCCC(CCCCCCCC)OC(=O)CCCCCCC(=O)OCC(COC(=O)CCCCCCC(=O)OC(CCCCCCCC)CCCCCCCC)COC(=O)NCCCN(CC)CC [Compound 61] | –
52 nm | 0.01 | 63 nm | – | – | – | 99% | – | – | 6.4 | CCCCCCCCC(CCCCCCCC)OC(=O)CCCCCC(=O)OCC(COC(=O)CCCCCC(=O)OC(CCCCCCCC)CCCCCCCC)COC(=O)OCCCN1CCCC1 [Compound 64, 7,7′-di(heptadecan-9-yl) O′1,O1-(2-((((3-(pyrrolidin-1-yl)propoxy)carbonyl)oxy)methyl)propane-1,3-diyl) di(heptanedioate)] | –
62 nm | 0.01 | 74 nm | – | – | – | 99% | – | – | 6.4 | CCCCCCCCC(CCCCCCCC)OC(=O)CCCCCCC(=O)OCC(COC(=O)CCCCCCC(=O)OC(CCCCCCCC)CCCCCCCC)COC(=O)OCCCN1CCCC1 [Compound 65, 8,8′-di(heptadecan-9-yl) O′1,O1-(2-((((3-(pyrrolidin-1-yl)propoxy)carbonyl)oxy)methyl)propane-1,3-diyl) di(octanedioate)] | –
64 nm | 0.01 | 78 nm | – | – | – | 99% | – | – | 6.1 | CCCCCCCCC(CCCCCCCC)OC(=O)CCCCCCC(=O)OCC(CC)(COC(=O)CCCCCCC(=O)OC(CCCCCCCC)CCCCCCCC)COC(=O)NCCN(CC)CC [Compound 66, O′1,O1-(2-((((2-(diethylamino)ethyl)carbamoyl)oxy)methyl)-2-ethylpropane-1,3-diyl) 8,8′-di(heptadecan-9-yl) di(octanedioate)] | –
53 nm | 0.03 | 65 nm | – | – | – | 99% | – | – | 6.2 | CCCCCCCCC(CCCCCCCC)OC(=O)CCCCCCC(=O)OCC(CC)(COC(=O)CCCCCCC(=O)OC(CCCCCCCC)CCCCCCCC)COC(=O)OCCCN1CCCC1 [Compound 67, O′1,O1-(2-ethyl-2-((((3-(pyrrolidin-1-yl)propoxy)carbonyl)oxy)methyl)propane-1,3-diyl) 8,8′-di(heptadecan-9-yl) di(octanedioate)] | –
63 nm | 0.01 | 75 nm | – | – | – | 99% | – | – | 6.4 | CCCCCCCCC(CCCCCCCC)OC(=O)CCCCC(=O)OCC(COC(=O)CCCCC(=O)OC(CCCCCCCC)CCCCCCCC)COC(=O)NCCN(CC)CC [Compound 68, O,O′-(2-((((2-(diethylamino)ethyl)carbamoyl)oxy)methyl)propane-1,3-diyl) di(heptadecan-9-yl) diadipate] | –
